Consider 13 compounds from US20230390310A1, “PERSONALIZED, PRECISE, CONSISTENT BOTANICAL FORMULATIONS ON DEMAND” (ALTOPA, INC, priority 2022, published 2023).

“Also recorded” adds a separate entry of the source.

Data set [1] is described as follows: Patient-reported outcomes, insomnia and sleep (Rest). It is filed as in vivo, patients. The conditions noted are these: THC small amount (0.25-10 mg/ml); terpenes increased by 0.25-3.5 mg/mL. The source says: (§1) FIG. 10 is a Pain Management Table, FIG. 11 is an Insomnia Table, FIG. 12 is a Cancer Treatment Support Table, FIG. 13 is an Anxiety, Depression, PTSD Management Table, FIG. 14 is a Chronic Obstructive Pulmonary Disease (COPD) Table, and FIG. 15 is a Irritable Bowel Syndrome Table. These are symptom-specific tables which summarize the pharmaceutical compositions where two or more patients, grouped by specific composition have reported moderate to substantial symptom improvement with the use of the specified composition for periods of use ranging from 1 to 24 months. With respect to the Tables in FIGS. 10-15, the amounts specified in the tables represent the mass in milligrams (mg) per 1.0 milliliter (mL). Dosing protocols vary and may involve a dosing volume ranging from 0.1 ml to 1 ml with a frequency of once, twice or three times a day (QD, BID, or TID, respectively), and in some cases used on an as-needed basis.

Data set [2] is described as follows: Patient-reported outcomes, COPD. It counts as in vivo. The conditions noted are these: patients suffering from COPD. The source says:
(§2) Relief includes Base Formulations used in connection with more than one patient suffering from pain and/or inflammatory diseases including neuropathic, and nociceptive pain caused by a range of injuries, arthritis, fibromyalgia, fibrosis, shingles, diabetes, and Lyme disease. Some patients suffering from pain were also suffering from COPD. […] For example, in the Table FIG. 1, Base Formulation TF8 has twice as much terpenes as TF7. […] If a patient was experience pain resulting from an inflammatory condition, such as COPD, then it was not necessary to include THC in the patient's formulations. However, if the patient was suffering from a type of pain such as nociceptive or neuropathic, the use of THC was beneficial. Increasing alpha pinene will be beneficial for patients with COPD.
(§3) FIG. 10 is a Pain Management Table, FIG. 11 is an Insomnia Table, FIG. 12 is a Cancer Treatment Support Table, FIG. 13 is an Anxiety, Depression, PTSD Management Table, FIG. 14 is a Chronic Obstructive Pulmonary Disease (COPD) Table, and FIG. 15 is a Irritable Bowel Syndrome Table. These are symptom-specific tables which summarize the pharmaceutical compositions where two or more patients, grouped by specific composition have reported moderate to substantial symptom improvement with the use of the specified composition for periods of use ranging from 1 to 24 months. […]

A short description of data set [3]: Patient-reported side effects and tolerability.
The nature of data set [4]: Patient-reported outcomes, pain and inflammation (Relief). It is filed as in vivo, patients. The conditions noted are these: pain / inflammatory conditions (pain and anxiety).
Source text: as §2
In addition, even when a patient was reporting good symptom relief, patient dosages were titrated up, including both dosing frequency and dose size, to determine whether better relief could be achieved. […] Thereafter, the HCP would revert the formulation back to the previous dosage and constituent amounts. Treatment then continues forward at that reverted level.
as §1

The nature of data set [5]: Patient-reported outcomes, anxiety, depression, PTSD (Calm / Serenity). The conditions noted are these: people with anxiety. It is filed as in vivo, patients.
Source text: FIGS. 2 and 3 show Oblend® Treatment Family (Oblend Tx) Calm formulations and Oblend Tx Serenity formulations. These tables include base formulations (BASE) for subjects suffering from anxiety, depression, and PTSD. The BASE Formulation is selected from Calm or Serenity Tables based on the subject's symptoms.
Some patients respond well to LIM and LOL while others respond better to more sedative terpenes like MYR and TPN. In most cases, patients with anxiety respond well to Calm Tx formulations. […] If a patient suffering from anxiety initially began treatment with the Calm Base and experienced some symptom relief, then, this patient continued taking Calm formulations from Calm or a personalized formulation with a similar terpene profile as Calm.
as §3

Data set [6] in a line: Patient-reported outcomes, gastrointestinal disorders (Wisdom). The conditions noted are these: 15-100 mg/mL added. It is filed as in vivo, patients.
Source text: Studies have shown that the Wisdom BASE formulations relieve symptoms associated with gastrointestinal disorders, such as IBS and others.
as §1

Turning to `C=CC(C)(O)CCC=C(C)C` (stereo not shown) [linalool, Linalool], the “sleep on adding or increasing the ingredient” value in data set [1] was “improves sleep”.
`CC1=CCC2CC1C2(C)C` (stereo not drawn) [alpha-pinene, Alpha Pinene]: the “COPD outcomes on increasing the terpene” value in data set [2] is “significantly improved outcomes”.
`CCCCCc1cc(O)c2c(c1)OC(C)(C)C1CC=C(C)CC21` (stereo not shown) [Delta-8, delta-8-tetrahydrocannabinol]: the “side-effects compared with Delta-9 THC” value in data set [3] (according to most patients) is “fewer side-effects”.
Turning to `CCCCCc1cc(O)c2c(c1)OC(C)(C)[C@@H]1CCC(C)=C[C@@H]21` [THC, Tetrahydrocannabinol, reference compound], the “sleep on adding or increasing the ingredient” value in data set [1] is “patients were able to fall asleep; also recorded: improves sleep”. Besides, in data set [4], the “patient outcomes on adding the ingredient to the formulation” value (from here on “patient outcomes”) is given as “improved pain relief”.
Turning to `C=CC(=C)CCC=C(C)C` [myrcene, Myrcene], the “sleep on adding or increasing the ingredient” value in data set [1] was “increased the duration and quality of sleep; also recorded: improves sleep”.
For the compound `C=C1CC/C=C(\C)CC[C@@H]2[C@@H]1CC2(C)C` [beta Caryophyllene, Beta Caryophyllene], the “COPD outcomes on increasing the terpene” value in data set [2] is reported as “significantly improved outcomes”. Also, the “patient outcomes” value in data set [4] is “significant improvement in symptom relief; also recorded: increased patient outcomes”.
`CCCCCc1cc(O)c2c(c1)OC(C)(C)c1ccc(C)cc1-2` [CBN, Cannabinol]: the “patient outcomes” value in data set [4] is reported as “favorable patient outcomes increased”.
`CCCCCc1cc(O)c2c(c1)OC(C)(CCC=C(C)C)C=C2` (stereo not shown) [CBC, Cannabichromene]: the “patient outcomes” value in data set [4] is “in some cases, patients reported a reduction in symptoms; also recorded: favorable patient outcomes improved dramatically”.
Take `C=C(C)[C@H]1CC=C(C)CC1` [limonene, Limonene]: the “anxiety response to the terpene” value in data set [5] was “make some people more anxious”.
As to `CCCCCc1cc(O)c(C/C=C(\C)CCC=C(C)C)c(O)c1` [CBG, Cannabigerol], in data set [4], the “patient outcomes” value is “some patients reported a reduction in symptoms; also recorded: favorable patient outcomes increased”.
For the compound `C=C(C)[C@@H]1CCC(C)=C[C@H]1c1c(O)cc(CCCCC)cc1O` [CBD, Cannabidiol], in data set [6], the “gastrointestinal symptom relief on adding the ingredient” value is “improved symptom relief”.
As to `C=CC(C)(O)CCC=C(C)CCC=C(C)C` (stereo not shown) [nerolidol, Nerolidol], in data set [1], the “sleep on adding or increasing the ingredient” value was “increased the duration and quality of sleep”. For the same compound, the allergy entry in data set [3] (ingredient of most formulations) is “some patients are allergic”.
Regarding `CC1=CCC(=C(C)C)CC1` [terpinolene, Terpinolene], the “sleep on adding or increasing the ingredient” value in data set [1] is “increased the duration and quality of sleep; also recorded: improves sleep”.
